From PubChem BioAssay (NCI)
Several values for one entry are separate records, joined by “and”; a condition that tells them apart may be missing. Equal values may be shown once.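 Grown in 96-well plates, cells were treated for 48 hours with each compound at five concentrations. Insufficient inhibition: endpoint recorded as highest concentration tested. GI50 = concentration required for 50% inhibition of growth. The concentration for full growth arrest is given as TGI.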

Key:
Test in all cases: NCI-60 cell line screen, 48 h
HCC-2998 colon = system: HCC-2998 colon
MCF7 breast = system: MCF7 breast
OVCAR-4 ovarian = system: OVCAR-4 ovarian
SF-295 CNS = system: SF-295 CNS
SK-MEL-28 melanoma = system: SK-MEL-28 melanoma
SN12C renal = system: SN12C renal
UACC-257 melanoma = system: UACC-257 melanoma
UACC-62 melanoma = system: UACC-62 melanoma
DLD-1 colon = system: DLD-1 colon
DMS 273 small cell lung = system: DMS 273 small cell lung

SMILES | GI50 (HCC-2998 colon) [µM] | TGI (HCC-2998 colon) | GI50 (MCF7 breast) [µM] | TGI (MCF7 breast) [µM] | GI50 (OVCAR-4 ovarian) [µM] | TGI (OVCAR-4 ovarian) | GI50 (SF-295 CNS) [µM] | TGI (SF-295 CNS) | GI50 (SK-MEL-28 melanoma) [µM] | TGI (SK-MEL-28 melanoma) | GI50 (SN12C renal) [µM] | TGI (SN12C renal) | GI50 (UACC-257 melanoma) [µM] | TGI (UACC-257 melanoma) | GI50 (UACC-62 melanoma) [µM] | TGI (UACC-62 melanoma) | TGI (DLD-1 colon) [µM] | TGI (DMS 273 small cell lung) [µM]
Cc1cc(C)c2c(c1)N(C)c1ncnc(-n3cnc4cc(C)ccc43)c1CC2C (stereo not drawn) | 4.05 | 61.8 µM | 3.42 | > 100 | 4.18 | 47.4 µM | 2.89 | 12 µM | 5.61 | 20.7 µM | 4.37 | 19.7 µM | 11.5 | 38.5 µM | 3.13 | 18.4 µM |  | 
COc1cc(C)[nH]c(=O)c1CNC(=O)c1c(C)n([C@H](C)C2CCN(CC(F)(F)F)CC2)c2ccccc12 | > 100 | > 100 µM | 25.7 | > 100 | 41.7 | > 100 µM | 31.8 | > 100 µM | 60.8 | > 100 µM | 43 | > 100 µM | 54.2 | > 100 µM | 32.5 | > 100 µM |  | 
C[C@]12CC[C@H]3[C@@H](CC[C@]4(O)C[C@@H](O[C@@H]5O[C@H](CO)[C@@H](O[C@@H]6OC[C@@H](O)[C@H](O)[C@H]6O)[C@H](O)[C@H]5O)CC[C@]34C=O)[C@@]1(O)CC[C@@H]2C1=CC(=O)OC1 | 3.09 | 21.3 µM | 1.3 | 7.57 | 0.91 | 2.8 µM | 1.7 | 6.27 µM | 2.76 | 15.6 µM | 0.414 | 2.49 µM | 2.34 | 9.02 µM | 1.61 | 5.04 µM |  | 
CC(=O)N[C@@H](Cc1ccc(OP(=O)(O)O)cc1)C(=O)N[C@H]1CCC(=O)N2CCC[C@@H](C(=O)NC3CCc4ccccc43)N2C1=O (stereo partly drawn) | > 25 | > 25 µM | > 25 | > 25 | > 25 | > 25 µM | > 25 | > 25 µM | > 25 | > 25 µM | > 25 | > 25 µM | > 25 | > 25 µM | > 25 | > 25 µM |  | 
CCOc1ccc2c(c1)C(=O)c1c-2n(CCCN=[N+]=[N-])c(=O)c2cc([N+](=O)[O-])ccc12 | 19.1 | > 100 µM | 0.0261 | 6.4 | 18.9 | > 100 µM | 4.16 | 74.4 µM | 51.7 | > 100 µM | 5.3 | > 100 µM | 96.4 | > 100 µM | 2.89 | 24.1 µM |  | 
O=C(/C=C/C=C/c1ccc2c(c1)OCO2)N/N=C\c1ccc(O)cc1O | 2.44 | 18.3 µM | 2.6 | 13.7 | 0.459 | 9.82 µM | 0.925 | 12.9 µM | 2.97 | 19.6 µM | 2.98 | 16.2 µM | 3.06 | 15.9 µM | 1.63 | 7.08 µM |  | 
Cn1c(=O)c(Oc2ccc(F)cc2F)cc2cnc(NCC(C)(C)O)nc21 | > 25 | > 25 µM | > 25 | > 25 | > 25 | > 25 µM | > 25 | > 25 µM | > 25 | > 25 µM | > 25 | > 25 µM | > 25 | > 25 µM | > 25 | > 25 µM |  | 
CCC(C)C1NC(=O)C(NC(=O)C(CC(C)C)N(C)C(=O)[C@@H]2CC(O)CN2C(=O)[C@H](C)O)C(C)OC(=O)[C@H](Cc2ccc(OC)cc2)N(C)C(=O)[C@@H]2CCCN2C(=O)[C@H](CC(C)C)NC(=O)C(C)C(=O)[C@H](C(C)C)OC(=O)CC1O (stereo partly drawn) | < 0.01 | 0.637 µM and 0.399 µM | < 0.01 |  | 0.0246 | 1.14 µM and 1.17 µM | 0.0268 | 2.05 µM and 0.388 µM | < 0.01 | 0.467 µM and 0.256 µM | 0.0572 | 0.806 µM and 3.2 µM | 0.0768 | 1.94 µM and 1.85 µM | < 0.01 | 0.361 µM and 0.0495 µM |  | 
Cc1cc(-c2cc(OC(=O)c3ccccc3)ccc2Cl)cc2nnc(Nc3ccc(OCCN4CCCC4)cc3)nc12 | 1.81 | 3.37 µM | 0.186 | 0.403 | 1.65 | 3.16 µM | 1.45 | 2.79 µM | 1.5 | 2.93 µM | 1.49 | 3.1 µM | 1.62 | 3.14 µM | 1.71 | 3.36 µM |  | 
CO/C(=C1/NC(=O)C(Cc2ccc(O)c(Br)c2)N(C)C(=O)C(C)NC(=O)CCC/C=C(\C)CCC(C)OC1=O)c1ccccc1 (stereo not drawn) | < 0.0154 | 0.311 µM | < 0.0165 | 1.9 | 0.0225 |  | 0.0502 | 0.17 µM | < 0.0134 | 0.0419 µM | 0.0695 | > 100 µM | 0.029 | 0.15 µM | 0.0753 | 20.4 µM |  | 
O=C(CCN1CCCN(c2cnc3ccccc3n2)CC1)c1csc2ccccc12 | 16.9 | 33.2 µM | 3.2 | 16.4 | 18.5 | 35.1 µM | 58 | > 100 µM | 20.6 | 37.1 µM | 21.9 | 44.7 µM | 26.1 | 63.2 µM | 19.7 | 34.2 µM |  | 
COC(=O)C1=CC(=O)[C@@H]2CCCC[C@H]12 |  | > 100 µM |  |  |  | > 100 µM |  |  |  | > 100 µM |  | > 100 µM |  | > 100 µM |  | > 100 µM | > 100 | > 100
COc1c(B(O)O)cccc1-c1nc2c(F)cc3n[nH]c(C)c3c2c2c1CCCC2 | 2.45 | 48.5 µM | 1.43 | > 50 | 2.71 | > 42.1 µM | 1.28 | > 40.6 µM | 2.1 | > 38.8 µM | 0.854 | > 50 µM | 2.08 | > 40.8 µM | 1.55 | 8.39 µM |  | 
COC(=O)Nc1nc2ccc(C(=O)c3ccc(F)cc3)cc2[nH]1 | 0.173 |  | 0.0867 | > 100 | 1.21 | > 100 µM | 0.094 | 0.966 µM | 0.556 | > 100 µM | 0.841 | > 100 µM | 68 | > 100 µM | 0.199 | 17.8 µM |  | 
